Assay results: paper PMC5052704, “Transition metal ion FRET uncovers K^+ regulation of a neurotransmitter/sodium symporter” (Nature Communications, 2016)

Target: T1, LeuT (leucine transporter) (Aquifex aeolicus, UniProt O67854, R30A/A313H/A317H/K398C)
T1 construct: gene snf; full-length LeuT, C-terminal octahistidine tag with thrombin site, pET16b derivative, expressed in E. coli C41, purified in DDM; tmFRET variants labelled with fluorescein-5-maleimide
Assay: scintillation proximity assay, Na+-dependent [3H]leucine binding
Settings: 5 μM [3H]leucine; pH 7.5; DDM; fluorescein-labelled at K398C; labelled compound

CC(C)C[C@H](N)C(=O)O [leucine]
scintillation proximity assay, Na+-dependent [3H]leucine binding: Na^+ dependence of [^3H]leucine binding to R30A^tmFRET
